Assays:
BChE = BChE (Homo sapiens, UniProt P06276); assay: biochemical
AChE [1] = target: T1, AChE (Homo sapiens, UniProt P22303); assay: biochemical; conditions: for Selectivity for AChE: IC50 (BChE)/IC50 (AChE)
AChE [2] = target: T1, AChE; assay: Kinetic study of AChE inhibition; format: biochemical

T1 sequence (P22303 32-614): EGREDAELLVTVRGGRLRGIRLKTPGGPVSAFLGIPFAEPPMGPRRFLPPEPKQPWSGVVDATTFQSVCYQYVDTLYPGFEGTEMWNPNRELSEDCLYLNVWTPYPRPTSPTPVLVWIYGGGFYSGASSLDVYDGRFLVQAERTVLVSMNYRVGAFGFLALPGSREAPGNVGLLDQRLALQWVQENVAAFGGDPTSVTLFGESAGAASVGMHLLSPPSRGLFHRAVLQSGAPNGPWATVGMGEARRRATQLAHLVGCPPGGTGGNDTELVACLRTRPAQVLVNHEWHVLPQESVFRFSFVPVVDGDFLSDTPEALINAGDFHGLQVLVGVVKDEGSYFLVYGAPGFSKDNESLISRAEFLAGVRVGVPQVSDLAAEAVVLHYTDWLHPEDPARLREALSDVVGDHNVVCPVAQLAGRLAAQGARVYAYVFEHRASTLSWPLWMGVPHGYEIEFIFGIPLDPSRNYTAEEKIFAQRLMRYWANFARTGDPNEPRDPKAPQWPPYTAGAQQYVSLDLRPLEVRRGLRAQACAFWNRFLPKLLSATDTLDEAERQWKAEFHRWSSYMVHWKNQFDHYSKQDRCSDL
Sequence of BChE (P06276 29-602): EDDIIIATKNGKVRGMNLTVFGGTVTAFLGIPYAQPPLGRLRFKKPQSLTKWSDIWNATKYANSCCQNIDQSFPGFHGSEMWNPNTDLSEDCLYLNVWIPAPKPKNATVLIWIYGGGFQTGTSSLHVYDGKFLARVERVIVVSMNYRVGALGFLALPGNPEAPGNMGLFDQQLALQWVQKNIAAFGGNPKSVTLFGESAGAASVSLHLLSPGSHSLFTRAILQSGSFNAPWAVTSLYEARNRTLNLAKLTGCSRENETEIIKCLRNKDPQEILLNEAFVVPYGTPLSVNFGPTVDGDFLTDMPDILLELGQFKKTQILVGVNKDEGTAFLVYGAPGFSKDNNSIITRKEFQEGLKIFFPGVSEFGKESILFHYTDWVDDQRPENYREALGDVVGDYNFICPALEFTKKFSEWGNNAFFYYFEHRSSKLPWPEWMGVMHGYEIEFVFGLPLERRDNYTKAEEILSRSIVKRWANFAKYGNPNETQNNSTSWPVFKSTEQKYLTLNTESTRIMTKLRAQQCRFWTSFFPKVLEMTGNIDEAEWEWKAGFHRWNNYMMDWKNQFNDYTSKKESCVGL

Row | SMILES | IC50 (BChE) [µM] | IC50 (AChE [1]) [µM] | Selectivity for AChE (AChE [1]) | Ki (AChE [2]) [nM] | non-competitive constant (Ki′) (AChE [2]; AChE, substrate acetylthiocholine iodide, pH 7.4, 30 °C) [µmol/L] | inhibition mechanism against AChE (AChE [2]; Lineweaver-Burk analysis) | inhibitory activity against AChE (in words) (AChE [1]) | selectivity over BChE (in words) (AChE [1])
1 | CC(C)CCOc1ccc(/C=C/C(=O)c2cc3ccccc3oc2=O)cc1 [Compound 5i, (E)-3-(3-(4-(isopentyloxy)phenyl)acryloyl)-2H-chromen-2-one] | > 500 | > 500 | – | – | – | – | – | –
2 | O=C(/C=C/c1ccccc1OCCN1CCOCC1)c1cc2ccccc2oc1=O [Compound 7h, (E)-3-(3-(2-(2-morpholinoethoxy)phenyl)acryloyl)-2H-chromen-2-one] | 29 ± 1.23 | 261 ± 4.17 | 0.11 | – | – | – | – | –
3 | CC(C)=CCOc1ccccc1/C=C/C(=O)c1cc2ccccc2oc1=O [Compound 7j, (E)-3-(3-(2-(3-methylbut-2-enyloxy)phenyl)-prop-2-enoyl)-2H-chromen-2-one] | 100 ± 6.84 | > 500 | <0.20 | – | – | – | – | –
4 | CC(C)CCOc1cccc(/C=C/C(=O)c2cc3ccccc3oc2=O)c1 [Compound 6i, (E)-3-(3-(3-(isopentyloxy)phenyl)acryloyl)-2H-chromen-2-one] | > 500 | > 500 | – | – | – | – | – | –
5 | COc1cc(/C=C/C(=O)c2cc3ccccc3oc2=O)ccc1OCCN1CCCC1 [Compound 12l, (E)-3-(3-(3-methoxy-4-(2-(pyrrolidin-1-yl)ethoxy)phenyl)acryloyl)-2H-chromen-2-one] | 0.46 ± 0.01 | 1.67 ± 0.04 | 0.28 | – | – | – | – | –
6 | CN(C)CCOc1ccccc1/C=C/C(=O)c1cc2ccccc2oc1=O [Compound 7d, (E)-3-(3-(2-(2-(dimethylamino)ethoxy)phenyl)acryloyl)-2H-chromen-2-one] | 15.2 ± 0.6 | 16.4 ± 0.22 | 0.92 | – | – | – | – | –
7 | O=C(/C=C/c1cccc(OCCN2CCOCC2)c1)c1cc2ccccc2oc1=O [Compound 6h, (E)-3-(3-(3-(2-morpholinoethoxy)phenyl)acryloyl)-2H-chromen-2-one] | > 500 | > 500 | – | – | – | – | – | –
8 | CCN(CC)CCOc1ccc(/C=C/C(=O)c2cc3ccccc3oc2=O)cc1 [Compound 5g, (E)-3-(3-(4-(2-(diethylamino)ethoxy)phenyl)acryloyl)-2H-chromen-2-one] | 6.21 ± 0.19 | 4.34 ± 0.29 | 1.43 | – | – | – | – | –
9 | CC(C)=CCOc1ccc(/C=C/C(=O)c2cc3ccccc3oc2=O)cc1 [Compound 5j, (E)-3-(3-(4-(3-methylbut-2-enyloxy)phenyl)-prop-2-enoyl)-2H-chromen-2-one] | > 500 | > 500 | – | – | – | – | – | –
10 | O=C(/C=C/c1ccc(OCCN2CCCC2)cc1)c1cc2ccccc2oc1=O [Compound 5e, (E)-3-(3-(4-(2-(pyrrolidin-1-yl)ethoxy)phenyl)acryloyl)-2H-chromen-2-one] | 4.11 ± 0.16 | 0.15 ± 0.01 | 27.40 | 110 | 0.19 | mixed-type inhibition | potent inhibitory activity | high selectivity
11 | CC(C)CCOc1ccccc1/C=C/C(=O)c1cc2ccccc2oc1=O [Compound 7i, (E)-3-(3-(2-(isopentyloxy)phenyl)acryloyl)-2H-chromen-2-one] | > 500 | > 500 | – | – | – | – | – | –
12 | CC(C)=CCOc1cccc(/C=C/C(=O)c2cc3ccccc3oc2=O)c1 [Compound 6j, (E)-3-(3-(3-(3-methylbut-2-enyloxy)phenyl)-prop-2-enoyl)-2H-chromen-2-one] | > 500 | > 500 | – | – | – | – | – | –
13 | CN(C)CCOc1ccc(/C=C/C(=O)c2cc3ccccc3oc2=O)cc1 [Compound 5d, (E)-3-(3-(4-(2-(dimethylamino)ethoxy)phenyl)acryloyl)-2H-chromen-2-one] | > 500 | 0.37 ± 0.03 | – | – | – | – | – | –
14 | CN(C)C(=O)COc1cccc(/C=C/C(=O)c2cc3ccccc3oc2=O)c1 [Compound 10d, (E)-N,N-dimethyl-2-(3-(3-oxo-3-(2-oxo-2H-chromen-3-yl)prop-1-en-1-yl)phenoxy)acetamide] | 44 ± 2.37 | > 500 | <0.09 | – | – | – | – | –
15 | O=C(/C=C/c1cccc(OCC(=O)N2CCCCC2)c1)c1cc2ccccc2oc1=O [Compound 10f, (E)-3-(3-(3-(2-oxo-2-(piperidin-1-yl)ethoxy)phenyl)acryloyl)-2H-chromen-2-one] | 223 ± 11.5 | 152 ± 12.8 | 1.46 | – | – | – | – | –
16 | O=C(/C=C/c1cccc(OCC(=O)N2CCCC2)c1)c1cc2ccccc2oc1=O [Compound 10e, (E)-3-(3-(3-(2-oxo-2-(pyrrolidin-1-yl)ethoxy)phenyl)acryloyl)-2H-chromen-2-one] | > 500 | > 500 | – | – | – | – | – | –
17 | O=C(/C=C/c1ccccc1OCCN1CCCC1)c1cc2ccccc2oc1=O [Compound 7e, (E)-3-(3-(2-(2-(pyrrolidin-1-yl)ethoxy)phenyl)acryloyl)-2H-chromen-2-one] | 3.76 ± 0.35 | 230 ± 14.8 | 0.02 | – | – | – | poor inhibitory activity | poor selectivity
18 | CN(C)C(=O)COc1ccccc1/C=C/C(=O)c1cc2ccccc2oc1=O [Compound 11d, (E)-N,N-dimethyl-2-(2-(3-oxo-3-(2-oxo-2H-chromen-3-yl)prop-1-en-1-yl)phenoxy)acetamide] | > 500 | > 500 | – | – | – | – | – | –
19 | COc1cc(/C=C/C(=O)c2cc3ccccc3oc2=O)cc(OC)c1OCCN1CCCCC1 [Compound 13m, (E)-3-(3-(3,5-dimethoxy-4-(2-(piperidin-1-yl)ethoxy)phenyl)acryloyl)-2H-chromen-2-one] | 6.41 ± 0.36 | 9.58 ± 0.8 | 0.67 | – | – | – | – | –
20 | O=C(/C=C/c1ccc(OCCN2CCCCC2)cc1)c1cc2ccccc2oc1=O [Compound 5f, (E)-3-(3-(4-(2-(piperidin-1-yl)ethoxy)phenyl)acryloyl)-2H-chromen-2-one] | 1.03 ± 0.05 | 0.69 ± 0.06 | 1.49 | – | – | – | – | –
21 | CN(C)CCOc1cccc(/C=C/C(=O)c2cc3ccccc3oc2=O)c1 [Compound 6d, (E)-3-(3-(3-(2-(dimethylamino)ethoxy)phenyl)acryloyl)-2H-chromen-2-one] | 15.3 ± 1.16 | 0.92 ± 0.07 | 16.64 | – | – | – | – | –
22 | O=C(/C=C/c1ccccc1OCC(=O)N1CCCC1)c1cc2ccccc2oc1=O [Compound 11e, (E)-3-(3-(2-(2-oxo-2-(pyrrolidin-1-yl)ethoxy)phenyl)acryloyl)-2H-chromen-2-one] | > 500 | > 500 | – | – | – | – | – | –
